Converted amounts (≈) assume the structure as drawn.

Series [1] is described as follows: Shake flask solubility measurement. The following applies: aqueous buffer, thermodynamic from solid, phosphate buffer pH 7.4, 37° C. In kind it is physicochemical. How it is done: Compound solubility in aqueous solution is determined by a standard method in the art, the shake flask method. Solubility measurement is performed under equilibrium conditions at pH 7.4. Samples are prepared by dissolving an excess of the test compound in a phosphate buffer (made up of 3,954 g sodium hydrogenphosphate-monohydrate, 6,024 g sodium chloride, 950 ml ultrapure water and adjusted to pH 7.4 with 0.1 M NaOH or 0.1 M HCl). These samples are shaken at 37° C. with 450 rpm (shaker: TiMix control Bühler) for 24 h in total until equilibrium is reached. After 7 hours shaking, the pH value of the sample is controlled and adjusted, if necessary. It is also checked that the sample (test compound) is available in excess. Shortly before the end of 24 h, samples are checked again for pH and precipitate. At the end of 24 h and after separation of the solid by filtration, the concentration of the compound in the filtrate is determined by liquid chromatography using […] (LC-UV).
Sample preparation: Incubation hood: TH 15 Bühler; pH device 766 Calimatic Knick; pH electrode InLab 423 Mettler
Chromatography Conditions:
Column: Chromolith RP18e 100×3 mm
Wavelength range: 190-400 nm • select a suitable evaluation wavelength
Injection volume: Probe 5 μl and 15 μl; Standard 5 μl
Column stove temperature: 37° C.
Eluent A: water/formic acid (999:1; v/v)
Eluent B: acetonitrile/formic acid (999:1; v/v)

Series [2] is described as follows: Microsomal stability (intrinsic clearance), human. In kind it is in vitro ADME. The settings on record: human liver microsomes, 0.5 mg/ml protein, Clint. The text has this:
A microsomal stability assay is used to measure in vitro clearance (Clint). The assay involves measuring the rate of disappearance of a compound due to its intrinsic attitude to be metabolized (“intrinsic” meaning that the disappearance is not affected by other properties like permeability, binding etc. that play a role when quantifying in vivo clearance). The microsomal stability (intrinsic clearance, Clint) and thus metabolic stability is generally given as μl/min/mg protein. It can be visualized as the volume of solution that 1 mg of microsomes is able to clear of the compound in one minute.
A Tecan Genesis workstation (RSP 150/8) was used for to perform the microsomal incubations. Analysis was carried out using a Waters ACQUITY UPLC system coupled to an ABSciex API3000 mass spectrometer. Data analysis was performed using Assay Explorer (Symyx).
Column: Acquity UPLC BEH C18, 2.1×50 mm, 1.7 μm (Waters) Mobile phases: A=0.1% formic acid in water; B=acetonitrile
Flow rate: 0.750 mL/min; Detection: ESI, MRM; Injection: 10 μL; Column temperature: 50° C.
• Potassium phosphate buffer: 0.05 M potassium phosphate buffer pH 7.4 containing 1 mM MgCl2 • NADPH (nicotinamide adenine dinucleotide phosphate): 22.5 mg NADPH-Na4 in 1.8 ml potassium phosphate buffer • Acetonitrile: 50 Vol % acetonitrile (1 volume acetonitrile, 1 volume water) • DMSO: 20 Vol % DMSO in water • Stock solution of 20 mg/ml human or mouse liver microsomes (protein)/ml in phosphate buffer • Stock solution of 10 mM compound in 100% DMSO
Dilution of test compounds was done in 2 steps starting from a 10 mM stock solution of the respective compound in 100% DMSO. First 4 μl stock solution was added to 196 μl of 20 Vol % DMSO. In a second step, 10 μl of the first dilution were added to 1590 μl potassium phosphate buffer to achieve a final concentration of 1.25 μM in the final compound dilution. Thus, the amount of organic solvent in the assay was kept to a minimum (<1%).
The human or mouse liver microsome (protein) solution to be used in the assay was prepared by mixing 750 μl stock solution (20 mg/ml) and 2250 μl potassium phosphate buffer to a final concentration of 5 mg/ml.
Incubation was carried out on a 96 deep well incubation plate. 160 μl per well of the final compound dilution were transferred onto the incubation plate. Four samples of each compound dilution were assayed. 20 μl/well liver microsome solution was added to each well and the samples were then preincubated for 5 min at 37° C. and 800 rpm agitation. Two reference compounds (verapamil and dextromethorphan) were used in parallel in every experiment and for each species (human or mouse microsomes) to ensure system performance and for comparison.
On a separate stop plate, 160 μl acetonitrile were added per well.
After preincubation, i.e. at time t1=0 minutes, 18 μl samples of incubated compound solution and were transferred and added per well (containing acetonitrile) on the stop plate to prevent a reaction (0 minutes control samples, 4 samples per compound). Equally, 18 μl samples of incubated reference compound solution were transferred and added per well (containing acetonitrile) on the stop plate at time t1=0 minutes and again after 30 minutes (t4), solubility and chemical stability of the compound were checked. […]
Background: Microsomes from liver hold many membrane-bound enzymes, among them those of drug oxidation.

In general, solubility refers to how much of the substance goes into solution per volume. Higher therefore signals much dissolved substance. In series [1], `CNc1cc(-c2cccc(Cl)c2Cl)nc(N)n1` [TH-287, reference compound] had a solubility at 24 h of 22 µg/mL (≈ 81.7 µM). The Microsomal stability human in series [2] amounted to 32 μl/min/mg prot.

(Values after patent US20180118721A1, “PYRIMIDINE DERIVATIVES” (Merck Patent GmbH, priority 2015, published 2018).)
